Results from patent US9745597B2, “Compositions and methods for controlling fungal and bacterial diseases in plants” (priority 2014, dated 2017).
Counter-ions that a name gives are not always drawn.

Assays:
[1] = system: Phakopsora pachyrhizi; experiment: In vivo preventive test on Phakopsora (soybeans) (Example 12); settings: rate 0.05%; 7 days after inoculation
[2] = system: Alternaria solani; experiment: In vivo preventive test on Alternaria (tomatoes) (Example 11); settings: rate 0.05%; 3 days after inoculation
[3] = system: Uromyces appendiculatus; experiment: In vivo preventive test on Uromyces (beans) (Example 13); settings: rate 0.05%; 10 days after inoculation
[4] = system: Venturia inaequalis; experiment: In vivo preventive test on Venturia (apples), equilibrated mixtures (Example 17); settings: 10 days after inoculation
[5] = system: Botrytis cinerea; experiment: In vivo preventive test on Botrytis (beans) (Example 19); settings: lesion size 3 days after inoculation
[6] = system: Alternaria solani; experiment: In vivo preventive test on Alternaria (tomatoes), equilibrated mixtures (Example 18); settings: 3 days after inoculation
[7] = system: Erwinia amylovora; experiment: In vivo control of Erwinia amylovora on apple blossoms (Example 30); settings: concentration 0.025 % applied to blossoms; after 6-7 days
[8] = system: Phytophthora infestans; type: in vivo; settings: for fungicidal activity against Tomato Late Blight: 0.25, 0.50 and 1.00 weight %, FIG. 4; for Percent Control of Tomato Late Blight: 1.0 weight % in 50% ethanol
[9] = system: Botrytis cinerea; experiment: In vivo preventive test on Botrytis (beans) (Example 14); settings: rate 0.2%; lesion size 3 days after inoculation
[10] = system: Sphaerotheca fuliginea; experiment: In vivo preventive test on Sphaerotheca (cucumbers), equilibrated mixtures (Example 16); settings: rate 0.015%; 7 days after inoculation
[11] = system: Sphaerotheca fuliginea; experiment: In vivo preventive test on Sphaerotheca (cucumbers) (Example 9); settings: rate 0.05%; 7 days after inoculation
Procedure: […] (Bacillus subtilis QST713 fermentation product) and the adjuvants […]-77 (polyalkyleneoxide modified heptamethyltrisiloxane), […]® (synthetic latex), NIMBUS® (paraffin mineral oil), […] (rapeseed oil methyl ester; castor oil ethoxylated) or MERO® (rapeseed oil methyl ester) were diluted in water to the desired concentrations and applied separately and in combination to young cucumber plants. After the spray coating had dried on, the plants were inoculated with an aqueous spore suspension of Sphaerotheca fuliginea. […] (Bacillus subtilis QST713 fermentation product) in combination with […]-77 (polyalkyleneoxide modified heptamethyltrisiloxane), […]® (synthetic latex), NIMBUS® (paraffin mineral oil), […] (rapeseed oil methyl ester; castor oil ethoxylated) or MERO® (rapeseed oil methyl ester) is greater than the calculated activity, i.e., a synergistic effect is present.

[12] = system: Venturia inaequalis; experiment: In vivo preventive test on Venturia (apples) (Example 10); settings: rate 0.05%; 10 days after inoculation
[13] = system: Botrytis cinerea; type: in vivo; settings: rates between 0.0625 and 1.0 weight %; FIG. 2B
[14] = system: Phytophthora infestans; type: in vivo; settings: rates between 0.0625 and 2.0 weight %; FIG. 2A, FIG. 3

With `CCCCC(CC)COC(=O)CC(C(=O)OCC(CC)CCCC)S(=O)(=O)[O-].[Na+]` (stereo not drawn) [GEROPON ® DOS-PG] the “Efficacy in % Found” value [1] was 0%, the “Efficacy in % Found” value [2] was 35% and the “Efficacy in % Found” value [3] was 0%. The “Efficacy in % Found” value ([4]; rate 0.03%) was 38%, the “Efficacy in % Found” value ([4]; rate 0.06%) was 15% and the “Efficacy in % Found” value ([4]; rate 0.12%) was 28%.
For `CCCCCCCCCCCCOS(=O)(=O)[O-].[Na+]` [LOXANOL ® K12P, sodium dodecyl sulfate], the “Efficacy in % Found” value ([5]; rate 0.12%) was 0%, the “Efficacy in % Found” value ([6]; rate 0.015%) was 8% and the “Efficacy in % Found” value ([6]; rate 0.03%) was 0%. The “Efficacy in % Found” value ([6]; rate 0.06%) was 23%, the “Efficacy in % Found” value ([6]; rate 0.12%) was 30% and the “Efficacy in % Found” value ([4]; rate 0.03%) was 11%. For the same compound, the “Efficacy in % Found” value ([4]; rate 0.06%) was 41% and the “Efficacy in % Found” value ([4]; rate 0.12%) was 73%.
In the case of `[H]/N=C(/N)N[C@H]1[C@H](O)[C@@H](O)[C@H](O[C@@H]2O[C@@H](C)[C@](O)(C=O)[C@H]2O[C@@H]2O[C@@H](CO)[C@H](O)[C@@H](O)[C@@H]2NC)[C@@H](N/C(N)=N\[H])[C@@H]1O` [Streptomycin sulfate], the Efficacy in % [7] is reported as 89%.
For `CCCCCCCCCCO[C@@H]1O[C@H](CO)[C@@H](O)[C@H](O)[C@H]1O` [n-decyl-B-D-glucoside], the “fungicidal activity against Tomato Late Blight” value (“fungicidal activity” below) [8] was “fungicidal activity was observed” and the “Percent Control of Tomato Late Blight” value [8] was 97%.
With `CCCCCCCCCCCCO[C@@H]1O[C@H](CO)[C@@H](O)[C@H](O)[C@H]1O` [n-dodecyl-B-D-glucoside] the “fungicidal activity” value [8] was “fungicidal activity was observed” and the “Percent Control of Tomato Late Blight” value [8] was 96%.
`CCCCCCCCCO[C@@H]1O[C@H](CO)[C@@H](O)[C@H](O)[C@H]1O` [n-nonyl-B-D-glucoside] was tested, and the “fungicidal activity” value [8] was “fungicidal activity was observed” and the “Percent Control of Tomato Late Blight” value [8] was 77%.
For “C8-10 alkyl polyglycoside [AGNIQUE ® PG8107G]”, the “Efficacy in % Found” value [9] was 0%.
For “C12-C14 lauryl dimethyl betaine [GENAGEN ® KB]”, the “Efficacy in % Found” value ([5]; rate 0.06%) was 18%, the “Efficacy in % Found” value ([5]; rate 0.12%) was 39% and the “Efficacy in % Found” value ([4]; rate 0.015%) was 15%.
“alkyl polyethylene glycol ether phosphoric acid mono/diester [HORDAPHOS ® 1306]” was tested, and the “Efficacy in % Found” value [10] was 0%, the “Efficacy in % Found” value ([5]; rate 0.12%) was 0% and the “Efficacy in % Found” value ([5]; rate 0.25%) was 14%. The “Efficacy in % Found” value ([6]; rate 0.015%) was 30%, the “Efficacy in % Found” value ([6]; rate 0.03%) was 32% and the “Efficacy in % Found” value ([4]; rate 0.06%) was 19%.
“cocoamidopropyl betaine (C8-C18) [GENAGEN ® CAB 818]” was tested, and the “Efficacy in % Found” value ([5]; rate 0.06%) was 29%, the “Efficacy in % Found” value ([5]; rate 0.12%) was 32% and the “Efficacy in % Found” value ([4]; rate 0.015%) was 4%. For the same compound, the “Efficacy in % Found” value ([4]; rate 0.03%) was 68% and the “Efficacy in % Found” value ([4]; rate 0.06%) was 56%.
With octyl glucose neopentyl glycol the “fungicidal activity” value [8] was “fungicidal activity was observed”.
In the case of “polyalkyleneoxide modified heptamethyltrisiloxane [SILWET ® L-77]”, the “Efficacy in % Found” value [11] is reported as 0%, the “Efficacy in % Found” value [1] is reported as 0% and the “Efficacy in % Found” value [2] is reported as 16%. The “Efficacy in % Found” value [12] was 0% and the “Efficacy in % Found” value [3] was 0%.
With sorbitan monolaurate [SPAN ® 20] the “control of Pepper Grey Mould” value [13] was “increasing control of the plant pathogen was observed as higher rates were applied”, the “Percent Control of Tomato Late Blight” value [8] was 75% and the “control of Tomato Late Blight” value [14] was “the highest level of control was observed at 1.0 and 2.0 weight %”.
sorbitan oleate [SPAN ® 80] was tested, and the “Percent Control of Tomato Late Blight” value [8] was 50%.
For sorbitan trioleate [SPAN ® 85], the “Percent Control of Tomato Late Blight” value [8] was 0%.
With sucrose monodecanoate the “Percent Control of Tomato Late Blight” value [8] was 25%.
